Format in all cases: physicochemical
Data set [1] can be described thus: Stability of linezolid Form IV stored 10 days at 0-100% relative humidity at room temperature. The procedure: The stability of linezolid Form IV was tested by storing it for 10 days at a relative humidity of between 0 and 100% at room temperature.
Data set [2] can be described thus: Long term stability of linezolid Form IV at room temperature and accelerated conditions (40° C. and 55° C.). The procedure: The long term stability of linezolid Form IV was tested by storing it at room temperature and under accelerated conditions at 40° C. and 55° C.
Data set [3] in a line: Chemical stability of Form IV obtained by heating Form II at 170° C. The note with it: Form IV obtained at 170° C. (one hour). The method, then: Crystalline linezolid Form IV may be prepared by heating crystalline linezolid Form II to a temperature higher than 85° C. Crystalline linezolid Form IV is obtained by keeping crystalline linezolid Form II at a temperature of between 85-175° C. As an example, crystalline linezolid Form II was kept at a temperature of 170° C. during one hour. The polymorphic form of crystalline linezolid Form II was changed to crystalline linezolid Form IV.

Data on one molecule can be found in US20080319191A1, “Crystalline form IV of linezolid” (Teva Pharmaceutical Industries Ltd., priority 2005, published 2008).

`CC(=O)NC[C@H]1CN(c2ccc(N3CCOCC3)c(F)c2)C(=O)O1` [linezolid Form IV]: the Solvent content in data set [1] (As is (before storage)) is 0.1%; in data set [1] (relative humidity 0%, 10 days, room temperature), 0.1%; in data set [1] (relative humidity 20%, 10 days, room temperature), 0.1%; in data set [1] (relative humidity 40%, 10 days, room temperature), 0.1%; in data set [1] (relative humidity 60%, 10 days, room temperature), 0.1%; in data set [1] (relative humidity 80%, 10 days, room temperature), 0.1%. For the same molecule, in data set [1] (relative humidity 100%, 10 days, room temperature), the Solvent content came out at 0.1%. The Hygroscopicity result in data set [1] (between 0-100% RH) is “non-hygroscopic”. Further, in data set [1] (between 0-100% RH), the Stability entry is reported as “stable”. The “Time stable against transformation into Form II upon storage” value in data set [1] (relative humidity of about 0% to about 100%, room temperature) was “at least 10 days”. The “Crystal form after storage (Results)” value in data set [2] (25° C., 1 M) was “Form IV”; in data set [2] (25° C., 2 M) it was “Form IV”; in data set [2] (25° C., 3 M), “Form IV”; in data set [2] (25° C., As is), “Form IV”; in data set [2] (40° C., 1 M), “Form IV”; in data set [2] (40° C., 2 M), “Form IV”. Further, the “Crystal form after storage (Results)” value in data set [2] (40° C., 3 M) was “Form IV”; in data set [2] (55° C., 1 M), “Form IV”; in data set [2] (55° C., 2 M) it was “Form IV”; in data set [2] (55° C., 3 M), “Form IV”. For the same molecule, the “Time stable on storage” value in data set [2] (25° C., 40° C., and 55° C.) is at least 3 months. In addition, the Chemical stability entry in data set [3] is “chemically stable”.
